Ki data for 4 compounds are collected here from patent US12180196B2, “Azetidine-substituted pyridine and pyrazine compounds as inhibitors of cannabinoid receptor 2” (HOFFMANN-LA ROCHE INC., priority 2018, dated 2024).

The structures appear in SMILES notation.

Chain of human CB2 (P34972 whole entry): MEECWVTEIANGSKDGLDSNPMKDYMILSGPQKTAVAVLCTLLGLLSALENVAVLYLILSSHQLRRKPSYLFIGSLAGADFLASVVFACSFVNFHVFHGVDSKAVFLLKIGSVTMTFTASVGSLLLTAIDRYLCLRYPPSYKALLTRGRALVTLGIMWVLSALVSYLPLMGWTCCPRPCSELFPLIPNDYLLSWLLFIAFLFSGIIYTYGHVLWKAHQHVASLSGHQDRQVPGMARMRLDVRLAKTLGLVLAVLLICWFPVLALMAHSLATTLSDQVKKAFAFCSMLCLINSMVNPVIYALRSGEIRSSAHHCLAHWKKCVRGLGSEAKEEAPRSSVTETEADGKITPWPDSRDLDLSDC

The target of the test is human CB2 (Homo sapiens (Human), UniProt P34972). Put plainly: Radioligand binding assay, human CB2 (CNR2) membranes, [3H]-CP-55,940. The note with it: HEK cell membranes, [3H]-CP-55,940 radioligand. As to the method:
Radioligand Binding Assay
The affinity of the compounds of the invention for cannabinoid CB1 receptors was determined using recommended amounts of membrane preparations (PerkinElmer) of human embryonic kidney (HEK) cells expressing the human CNR1 or CNR2 receptors in conjunction with 1.5 or 2.6 nM [3H]-CP-55,940 (Perkin Elmer) as radioligand, respectively. Binding was performed in binding buffer (50 mM Tris, 5 mM MgCl2, 2.5 mM EDTA, and 0.5% (wt/vol) fatty acid free BSA, pH 7.4 for CB1 receptor and 50 mM Tris, 5 mM MgCl2, 2.5 mM EGTA, and 0.1% (wt/vol) fatty acid free BSA, pH 7.4 for CB2 receptor) in a total volume of 0.2 ml for 1 h at 30° C. shaking. The reaction was terminated by rapid filtration through microfiltration plates coated with 0.5% polyethylenimine (UniFilter GF/B filter plate; Packard). Bound radioactivity was analyzed for Ki using nonlinear regression analysis (Activity Base, ID Business Solution, Limited), with the Kd values for [3H]CP55,940 determined from saturation experiments. The compounds of formula (I) show an excellent affinity for the CB2 receptor.
The compounds according to formula (I) have an activity in the above assay (Ki) between 0.5 nM and 10 μM. Particular compounds of formula (I) have an activity in the above assay (Ki) between 0.5 nM and 3 μM. Other particular compounds of formula (I) have an activity in the above assay (Ki) between 0.5 nM and 100 nM.
For the compound `CCOC(=O)C(CC)(CC)NC(=O)c1ccc(N2CC(OCCCF)C2)c(OCC2CC2)n1` [Example 1, Ethyl 2-({6-(cyclopropylmethoxy)-5-[3-(3-fluoropropoxy)azetidin-1-yl]pyridine-2-carbonyl}amino)-2-ethylbutanoate], the Ki is 0.019 µM. In other words, the double-digit nanomolar range.
In the case of `CCOC(=O)C(CC)(CC)NC(=O)c1ccc(N2CC(OCCF)C2)c(OCC2CC2)n1` [Example 2, Ethyl 2-({6-(cyclopropylmethoxy)-5-[3-(2-fluoroethoxy)azetidin-1-yl]pyridine-2-carbonyl}amino)-2-ethylbutanoate] it was 0.005 µM; in that of `CCOC(=O)C(CC)(CC)NC(=O)c1ccc(N2CC(F)C2)c(OCC2CC2)n1` [Example 4, Ethyl 2-{[6-(cyclopropylmethoxy)-5-(3-fluoroazetidin-1-yl)pyridine-2-carbonyl]amino}-2-ethylbutanoate], 0.006 µM.
In the case of `NC(=O)CC1(NC(=O)c2ccc(N3CC(OCCF)C3)c(OCC3CC3)n2)COC1` [Example 5, N-[3-(2-Amino-2-oxoethyl)oxetan-3-yl]-6-(cyclopropylmethoxy)-5-[3-(2-fluoroethoxy)azetidin-1-yl]pyridine-2-carboxamide] it was 0.447 µM.
